US20070128217A1 (priority 2003, published 2007)

Columns and labels:
[1] = test system: rabbit serum obtained by immunizing a rabbit with the SARS-CoV strain Frankfurt 1; assay type: binding; design: Binding of a rabbit serum to linear peptides / Binding of a rabbit serum to looped peptides / Rabbit serum linear peptides / Rabbit serum looped peptides / Binding of a rabbit serum to linear peptides of protein N of SARS-CoV Urbani (Rabbit serum linear peptides) / Binding of a rabbit serum to looped/cyclic peptides of protein N of SARS-CoV Urbani (Rabbit serum looped peptides): unit not given here
[2] = test system: recombinant human anti-SARS-CoV antibody 03-018; assay type: binding; design: Binding of antibody 03-018 to linear peptides of the N protein of SARS-CoV Urbani / Binding of antibody 03-018 to looped/cyclic peptides of the N protein of SARS-CoV Urbani: unit not given here
[3] = test system: control sera (pooled serum of ten healthy LUMC hospital workers; commercial negative donor pooled serum from the Dutch bloodbank); assay type: binding, human; design: Binding of Control serum LUMC to linear peptides / Binding of Control serum Blood-bank to linear peptides / Binding of Control serum LUMC to looped peptides / Binding of Control Serum Blood-Bank to Looped peptides / Binding of Control serum LUMC to linear peptides of the protein M of SARS-CoV Urbani / Binding of Control serum Blood-bank to linear peptides of the protein M of SARS-CoV Urbani / Binding of Control serum LUMC to looped peptides of the protein M of SARS-CoV Urbani / Binding of Control Serum Blood-Bank to Looped peptides of the protein M of SARS-CoV Urbani: unit not given here
[4] = test system: antibodies in sera from SARS patients (sera 1a, 1b, 2, 6, 37, 62, London, SARS-yellow, SARS-green); assay type: binding, human; design: Binding of serum 6 to linear peptides of protein X1 of SARS-CoV Urbani / Binding of serum 37 to linear peptides of protein X1 of SARS-CoV Urbani / Binding of serum 6 to looped/cyclic peptide (PEPSCAN-ELISA) / Binding of serum 37 to looped/cyclic peptide (PEPSCAN-ELISA) / Binding of serum 37 to looped/cyclic peptides of protein X1 of SARS-CoV Urbani / Binding of serum 6 to linear peptides of protein X2 / Binding of serum 37 to linear peptides of protein X2 / Binding of serum 37 to looped/cyclic peptides of protein X2 of SARS-CoV Urbani / Binding of serum 6 to linear peptides of protein M of SARS-CoV Urbani / Binding of serum 37 to linear peptides of protein M of SARS-CoV Urbani / Binding of serum 6 to looped/cyclic peptides of protein M of SARS-CoV Urbani / Binding of serum 37 to looped/cyclic peptides of protein M of SARS-CoV Urbani / Binding of serum 6 to linear peptides of protein X3 of SARS-CoV Urbani / Binding of serum 37 to linear peptides of protein X3 of SARS-CoV Urbani / Binding of serum 37 to looped/cyclic peptides of protein X3 of SARS-CoV Urbani / Binding of serum 6 to linear peptides of protein X4 of SARS-CoV Urbani / Binding of serum 37 to linear peptides of protein X4 of SARS-CoV Urbani / Binding of serum 37 to looped/cyclic peptides of protein X4 of SARS-CoV Urbani / Binding of serum 6 to linear peptides of protein X5 of SARS-CoV Urbani / Binding of serum 37 to linear peptides of protein X5 of SARS-CoV Urbani / Binding of serum 37 to looped/cyclic peptides of protein X5 of SARS-CoV Urbani / Binding of serum 6 to linear peptides of protein N of SARS-CoV Urbani / Binding of serum 37 to linear peptides of protein N of SARS-CoV Urbani / Binding of serum 6 to linear peptide (PEPSCAN-ELISA) / Binding of serum 1a to looped/cyclic peptides of protein N of SARS-CoV Urbani / Binding of serum 1b to looped/cyclic peptides of protein N of SARS-CoV Urbani / Binding of serum 2 to looped/cyclic peptides of protein N of SARS-CoV Urbani / Binding of serum 6 to looped/cyclic peptides of protein N of SARS-CoV Urbani / Binding of serum 37 to looped/cyclic peptides of protein N of SARS-CoV Urbani / Binding of serum 62 to looped/cyclic peptides of protein N of SARS-CoV Urbani / Binding of serum London to looped/cyclic peptides of protein N of SARS-CoV Urbani / Binding of serum SARS-green to looped/cyclic peptides of protein N of SARS-CoV Urbani: unit not given here

| Sequence | Binding of a rabbit serum to linear peptides of protein N of SARS-CoV Urbani (Rabbit serum linear peptides) [1] | Binding of a rabbit serum to looped/cyclic peptides of protein N of SARS-CoV Urbani (Rabbit serum looped peptides) [1] | Binding of antibody 03-018 to linear peptides of the N protein of SARS-CoV Urbani [2] | Binding of antibody 03-018 to looped/cyclic peptides of the N protein of SARS-CoV Urbani [2] | Binding of Control Serum Blood-Bank to Looped peptides [3] | Binding of Control serum Blood-bank to linear peptides [3] | Binding of Control serum LUMC to linear peptides [3] | Binding of Control serum LUMC to looped peptides [3] | other results |
| --- | --- | --- | --- | --- | --- | --- | --- | --- | --- |
| AATVLQLPQGTTLPK | 0.3 | 1.2 | 0.1 | 0.2 |  |  |  |  |  |
| ARMASGGGETALALL | 0.2 | 0.0 | 0.1 | 0.3 | 0.6 | 0.8 | 0.7 | 0.8 |  |
| DPQFKDNVILLNKHI | 0.2 | 0.7 | 0.1 | 0.3 |  |  |  |  |  |
| IKLDDKDPQFKDNVI | 0.1 | 0.3 | 0.1 | 0.2 |  |  |  |  | Control Serum Blood-Bank Looped peptides [3]: 0.6; Control serum Blood-bank linear peptides [3]: 0.9; Control serum LUMC linear peptides [3]: 0.9; Control serum LUMC looped peptides [3]: 0.6 |
| KDPQFKDNVILLNKH | 0.2 | 0.5 | 0.1 | 0.2 |  |  |  |  |  |
| LDDKDPQFKDNVILL | 0.1 | 0.2 | 0.1 | 0.3 |  |  |  |  |  |
| LPQGTTLPKGFYAEG | 0.1 | 0.7 | 0.1 | 0.3 | 0.9 | 0.8 | 0.8 | 0.8 |  |
| NNAATVLQLPQGTTL | 0.2 | 0.4 | 0.1 | 0.3 | 0.8 | 0.9 | 0.9 | 0.8 |  |
| STPGSSRGNSPARMA |  |  | 0.1 | 0.2 |  |  |  |  | Recognition of the peptide by the rabbit serum [1]: recognized; Binding of serum 1a to linear peptide (PEPSCAN-ELISA) [4]: 0.5; Binding of serum 1a to looped/cyclic peptides of protein N of SARS-CoV Urbani [4]: 0.3; Binding of serum 1b to linear peptide (PEPSCAN-ELISA) [4]: 0.3; Binding of serum 1b to looped/cyclic peptides of protein N of SARS-CoV Urbani [4]: 0.2; Binding of serum 2 to linear peptide (PEPSCAN-ELISA) [4]: 0.4; Binding of serum 2 to looped/cyclic peptides of protein N of SARS-CoV Urbani [4]: 0.4; Binding of serum 6 to linear peptide (PEPSCAN-ELISA) [4]: 0.3; Binding of serum 6 to looped/cyclic peptides of protein N of SARS-CoV Urbani [4]: 0.4; Binding of serum 37 to linear peptide (PEPSCAN-ELISA) [4]: 0.7; Binding of serum 37 to looped/cyclic peptides of protein N of SARS-CoV Urbani [4]: 0.6; Binding of serum 62 to linear peptide (PEPSCAN-ELISA) [4]: 0.8; Binding of serum 62 to looped/cyclic peptides of protein N of SARS-CoV Urbani [4]: 0.5; Binding of serum London to linear peptide (PEPSCAN-ELISA) [4]: 0.5; Binding of serum London to looped/cyclic peptides of protein N of SARS-CoV Urbani [4]: 0.5; Binding of serum SARS-green to linear peptide (PEPSCAN-ELISA) [4]: 0.8; Binding of serum SARS-green to looped/cyclic peptides of protein N of SARS-CoV Urbani [4]: 0.2; Binding of serum SARS-yellow to linear peptide (PEPSCAN-ELISA) [4]: 0.7; Binding of serum SARS-yellow to looped/cyclic peptides of protein N of SARS-CoV Urbani [4]: 0.5 |
| YYQLESTQITTDTGI |  |  |  |  | 0.4 | 0.4 | 0.5 | 0.4 | Binding of a rabbit serum to linear peptides [1]: 0.1; Binding of a rabbit serum to looped peptides [1]: 0.6; Binding of serum 1a to linear peptides of protein X1 of SARS-CoV Urbani [4]: 0.7; Binding of serum 1a to looped/cyclic peptides of protein X1 of SARS-CoV Urbani [4]: 0.4; Binding of serum 1b to linear peptides of protein X1 of SARS-CoV Urbani [4]: 0.7; Binding of serum 1b to looped/cyclic peptides of protein X1 of SARS-CoV Urbani [4]: 0.3; Binding of serum 2 to linear peptides of protein X1 of SARS-CoV Urbani [4]: 0.4; Binding of serum 2 to looped/cyclic peptides of protein X1 of SARS-CoV Urbani [4]: 0.2; Binding of serum 6 to linear peptides of protein X1 of SARS-CoV Urbani [4]: 0.5; Binding of serum 6 to looped/cyclic peptides of protein X1 of SARS-CoV Urbani [4]: 0.2; Binding of serum 37 to linear peptides of protein X1 of SARS-CoV Urbani [4]: 0.7; Binding of serum 37 to looped/cyclic peptides of protein X1 of SARS-CoV Urbani [4]: 0.5; Binding of serum 62 to linear peptides of protein X1 of SARS-CoV Urbani [4]: 0.5; Binding of serum 62 to looped/cyclic peptides of protein X1 of SARS-CoV Urbani [4]: 0.4; Binding of serum London to linear peptides of protein X1 of SARS-CoV Urbani [4]: 0.2; Binding of serum London to looped/cyclic peptides of protein X1 of SARS-CoV Urbani [4]: 0.2; Binding of serum SARS-green to linear peptides of protein X1 of SARS-CoV Urbani [4]: 0.2; Binding of serum SARS-green to looped/cyclic peptides of protein X1 of SARS-CoV Urbani [4]: 0.3; Binding of serum SARS-yellow to linear peptides of protein X1 of SARS-CoV Urbani [4]: 0.3; Binding of serum SARS-yellow to looped/cyclic peptides of protein X1 of SARS-CoV Urbani [4]: 0.3 |
